Patent publication US8916712B2, “Compositions and methods for cytoprotection” (Board of Trustees of the University of Arkansas, priority 2007, dated 2014)
Like-named read-outs stand apart in the source and are kept apart here.

Columns and labels:
[1] = Trolox-Equivalent Antioxidant Capacity (TEAC) Assay; settings: for TEAC value, Ligand / TEAC value, Chelate: relative to Trolox standard assigned TEAC 1.00; for TEAC value, Chelate: zinc chelate of the named ligand
Experimental: The antioxidant capacity of the zinc chelates was measured using the 6-hydroxy-2,5,7,8-tetramethylchroman-2-carboxylic acid (Trolox)-Equivalent Antioxidant Capacity (TEAC) Assay (Randox Laboratories Ltd., Antrim, United Kingdom). […] Antioxidant capacity was measured relative to the Trolox standard, which was assigned a TEAC value of 1.00.

[2] = tested on: U937 human promonocytic cells; settings: for Radioprotection / cytoprotection: 0-100 μM added immediately after irradiation, PI assay 24 hr
Experimental: To determine the radioprotective effects of Zn^2+-chelates, U937 human promonocytic cells (ATCC number CRL-1593.2) were irradiated with or without Zn^2+-chelates added to the cells before or after irradiation, and radiation-induced cell death was measured 24 hr later using a propidium iodide (PI) assay. Propidium iodide was added to the cells at a final concentration of 4 μM and incubated for 15 minutes. Fluorescence (which indicates dead cells) was measured at 530/645 nm, and fluorescence was measured again after cell lysis with Triton-100 (1%, v/v) for 20 minutes (to give an estimate of total cells). The background (no cells) was subtracted, and the percent of the radiation-induced cell death was computed.
Different concentrations (0-100 μM) of a compound were added to the cells, which were then irradiated with 50 Gy.
Human U937 cells were irradiated in vitro with 50 Gy and the compounds were added at different concentrations (0-100 μM) immediately after irradiation. […] Cell death was measured 24 hr after irradiation using a PI assay (as detailed above).

[3] = target: T1, recombinant human DNase I (Homo sapiens, UniProt P24855); assay: Plasmid incision assay of endonuclease activity, recombinant DNase I; type: biochemical; settings: 0, 100 or 200 μM; 1 hour at 37° C.; pBR322 plasmid DNA
T1 construct: Recombinant DNase I was produced using a similar approach; made in house
T1 sequence (P24855 23-282): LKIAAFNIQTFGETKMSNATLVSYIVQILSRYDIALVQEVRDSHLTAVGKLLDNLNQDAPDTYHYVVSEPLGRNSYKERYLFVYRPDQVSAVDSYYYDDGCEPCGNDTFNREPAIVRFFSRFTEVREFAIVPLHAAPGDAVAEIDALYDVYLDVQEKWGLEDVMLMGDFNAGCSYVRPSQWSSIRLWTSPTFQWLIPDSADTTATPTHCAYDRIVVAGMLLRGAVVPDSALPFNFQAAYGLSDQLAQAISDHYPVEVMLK
Experimental: It was hypothesized that Zn^2+-chelates of aminothiols could provide radioprotection via their direct inhibition of nucleases and their antioxidant properties (i.e., prevent nuclease induction and release). To test this hypothesis, the activity of Zn(II) chelates to inhibit nucleases was assayed in vitro. For this, DNase I and EndoG were cloned, recombinant nuclease were expressed and purified for the in vitro assay. Human and mouse mature EndoG cDNA was reverse transcribed by RT-PCR from either normal human breast epithelial HMEC cells (Clonetics, Walkersville, Md.) or immortalized mouse proximal tubule epithelial TKPTS cells (obtained from D. Elsa Bello-Reuss, University of Texas Medical Branch, Galveston). The plasmid for mature human EndoG (A49-K297) with a C-terminal histidine tag and mouse mature EndoG (A45-K294) with a C-terminal histidine tag were constructed by inserting coding cDNA into pET29b(+) (Novagen, San Diego, Calif.) and expressed in Escherichia coli BL21 (DE3) cells using standard procedures. Expression of the recombinant proteins was induced by IPTG. The expressed recombinant protein was purified by HisTrap FF crude Kit (GE Healthcare, Uppsala, Sweden) and stored in 20 mM Tris-HCl, ph 7.5, 0.5 M NaCl, 2 mM 2-mercaptoethanol, and 50% glycerol.
(§1) Endonuclease activity was measured using a plasmid incision assay. Activity was measured in 20 μl samples containing 1 μg pBR322 plasmid DNA, 10 mM Tris-HCl, pH 7.7, 25 μg/ml bovine serum albumin V fraction, 0.5 mM dithiothreitol, 5 mM MgCl2, 2 mM CaCl2, and 2 μl endonuclease. After 1 hour incubation at 37° C., the reaction was stopped by the addition 5 μl 1% SDS, 100 mM EDTA. Digested DNA was then subjected to a 1% agarose gel electrophoresis at 7 V/cm for 1 hour at room temperature. The gel was stained in 0.5 μg/ml ethidium bromide solution for 20 minutes and photographed under […]. Scanning densitometer Fotodyne (Fotodyne Inc., Hartland, Wis.) was utilized to quantify the relative amount of endonuclease-treated plasmid DNA present in a covalently closed circular DNA (cccDNA), open circular DNA (ocDNA) or linear DNA (linDNA). One endonuclease unit was defined as the amount of enzyme required to convert 1 μg cccDNA to ocDNA and linDNA.
(§2) Recombinant DNase I and rat serum DNase (which is predominantly rat DNase I) were incubated with 0, 100, or 200 μM of a Zn^2+-chelate (i.e., Zn-3,5-diisopropylsalicylic acid (DIPS), Zn-gluconate, or Zn-glycinate), a ligand (i.e., DIPS, gluconic acid, or glycine, as negative controls), or ZnCl2 (as positive control).

[4] = target: T2, rat serum DNase (predominantly rat DNase I) (Rattus norvegicus, UniProt P21704); assay: Plasmid incision assay of endonuclease activity, rat serum DNase; type: biochemical; settings: 0, 100 or 200 μM; 1 hour at 37° C.; pBR322 plasmid DNA
T2 construct: rat serum DNase (which is predominantly rat DNase I); from tissue; host or cells: rat serum
T2 sequence (P21704 23-284): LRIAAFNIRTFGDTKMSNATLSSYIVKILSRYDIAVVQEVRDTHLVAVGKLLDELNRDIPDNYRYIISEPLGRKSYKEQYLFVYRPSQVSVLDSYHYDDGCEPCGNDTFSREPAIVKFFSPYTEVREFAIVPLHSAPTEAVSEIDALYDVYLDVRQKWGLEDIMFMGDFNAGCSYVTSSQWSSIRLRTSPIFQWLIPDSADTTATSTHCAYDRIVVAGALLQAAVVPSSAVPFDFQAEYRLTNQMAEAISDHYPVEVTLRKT
Experimental: as §1, §2

human U937 cells = assay: Radiation injury of U937 cells (4 Gy), chelates added before or at times after irradiation; type: cell-based; settings: added 30 minutes before, immediately after, or up to 4 hours after irradiation
Experimental: FRTL-5 thyroid cells (ATCC, catalog #CRL8305) were irradiated with 450 Gy without or with Zn^2+-chelates added before and/or after irradiation. […] In another experiment, Zn^2+-chelates (i.e., Zn-captopril, Zn-NAC, Zn-penicillamine, or Zn-PTCA) were added to human U937 cells either 30 minutes before, immediately after, or up to 4 hours after irradiation (4 Gy).

U937 cells [5] = assay: Radiation-induced DNA fragmentation in U937 cells, TUNEL assay; type: cell-based, human; settings: added before 50 Gy; TUNEL 24 hr later
Experimental: Female CD-1 mice (n=4) were irradiated with an 8 Gy dose and apoptotic endonuclease-mediated DNA fragmentation was measured in different organs 40 hours after irradiation. For this, tissue sections were subjected to terminal deoxynucleotidyl transferase mediated dUTP nick end labeling (TUNEL) staining with the In Situ Cell Death Detection Kit from Roche Diagnostics (Indianapolis, Ind.). After washing and counterstaining with 4,6-diamidino-2-phenylindole (DAPI) sections were mounted under coverslips using the Antifade kit (Molecular Probes; Eugene, Oreg.) and analyzed under an Axioskop-2 mot plus microscope (Carl Zeiss, Gottingen Germany) with green filter set #31001, red filter set #11010v2 and blue filter set #31000 from Chroma Technology Corp. (Rockingham, Vt.). Images and acquisitions were performed using digital camera AxioCam MRm (Carl Zeiss) and software Axiovision 3.1 (Carl Zeiss).
The ability of the Zn^2+-chelates to inhibit radiation-induced DNA fragmentation was also examined. U937 cells were exposed to amifostine (as a positive control) or Zn^2+—N-acetylcysteine (Zn-NAC), irradiated as described above, and DNA fragmentation and cell death were measured 24 hr later using a TUNEL assay, essentially as described in Example 1.

U937 cells [6] = assay: Comet assay of U937 cells irradiated with 4 Gy; type: cell-based, human; settings: 10 μM, 24 hr after irradiation
Experimental: Considering that the LD50/30 (i.e., the dose that […] in 50% of the animals at 30 days) for mice is approximately 8 Gy (Bichay et al., 1986, Strahlenther Onkol, 162(6):391-399), the 50 Gy dose used to irradiate the cells in the previous example was rather high. Thus, the Zn^2+-chelates were tested for radioprotection against a more physiological dose of radiation. The Zn^2+-chelates tested were Zn-NAC, Zn-captopril, Zn-2-propylthiazolidine-4-carboxylic acid (Zn-PTCA), and Zn-penacillamine. U937 cells were exposed to a Zn^2+-chelate (10 μM), irradiated with 4 Gy, and DNA fragmentation and apoptosis were measured using a single-cell gel electrophoresis assay (also known as Comet assay) 24 hr after irradiation. Alkaline or neutral Comet assays were performed using CometAssay™ kits from Trevigen (Gaithersburg, MC) according to the manufacturer's instructions. The slides were analyzed under an epifluorescense microscope using the Comet assay image analysis software (CometScore; TriTek, Sumerduck, Va.).

[7] = compound added before 50 Gy, Zn^2+-chelate 1-20 μM, PI assay 24 hr later

Q: Which “TEAC value, Ligand” value [1] does the source give for `C[C@H](CS)C(=O)N1CCC[C@H]1C(=O)O` [Captopril] here?
A: The value was 0.90.

Q: For `NCCS` [Cysteamine], which “TEAC value, Ligand” value [1] is on record?
A: The value was 0.40.

Q: What about the Radiation-induced cell death [2, 7] of the same compound?
A: Its Radiation-induced cell death is “inhibition”.

Q: Which “TEAC value, Ligand” value [1] does the source give for `N[C@@H](CS)C(=O)O` [Cysteine] here?
A: Its value is 0.43.

Q: And the Radioprotection / cytoprotection ([2]; 50 Gy)?
A: Its Radioprotection / cytoprotection is “not cytoprotective”.

Q: For `CC(C)c1cc(C(=O)O)c(O)c(C(C)C)c1` [DIPS, 3,5-diisopropylsalicylic acid], which “Inhibition of DNase I activity” value [3] is on record?
A: Its value is “no effect”.

Q: And the “Inhibition of serum DNase activity” value [4]?
A: Its value is “no effect”.

Q: Which “TEAC value, Ligand” value [1] does the source give for `CC(S)C(=O)NCC(=O)O` (stereo not drawn) [MPG, N-(2-mercaptopropionyl)glycine] here?
A: The value was 0.53.

Q: With `CC(=O)N[C@@H](CS)C(=O)O` [NAC, N-Acetylcysteine] as the compound, how does the “TEAC value, Ligand” value [1] read?
A: The value was 0.88.

Q: And the Radioprotection / cytoprotection ([2]; 50 Gy)?
A: Its Radioprotection / cytoprotection is “not cytoprotective”.

Q: With `CC(C)(S)[C@@H](N)C(=O)O` [Penicillamine] as the compound, how does the “Antioxidant activity in TEAC assay” value [1] read?
A: The value was “strongest antioxidants”.

Q: And the “TEAC value, Ligand” value [1]?
A: Its value is 1.54.

Q: For `[Zn+2]` [Unchelated Zn^2+], which “Antioxidant activity in TEAC assay” value [1] is on record?
A: Its value is “no activity”.

Q: For `CCCC1NC(C(=O)O)CS1.[Zn]` (stereo not drawn) [Zn-PTCA, zinc-2-n-propylthiazolidine-4-carboxylic acid], which “Protection against radiation injury” value (human U937 cells) is on record?
A: Its value is “protected”.

Q: Which results are given for `O=C([O-])[C@H](O)[C@@H](O)[C@H](O)[C@H](O)CO.O=C([O-])[C@H](O)[C@@H](O)[C@H](O)[C@H](O)CO.[Zn+2]` [Zn-gluconate]?
A: Inhibition of DNase I activity [3]: inhibited; Inhibition of serum DNase activity [4]: inhibited

Q: Which results are given for `NCC(=O)[O-].NCC(=O)[O-].[Zn+2]` [Zn-glycinate]?
A: Inhibition of DNase I activity [3]: inhibited; Inhibition of serum DNase activity [4]: inhibited

Q: What does the source list for `[Cl-].[Cl-].[Zn+2]` [ZnCl2]?
A: Inhibition of DNase I activity [3]: inhibition; Inhibition of serum DNase activity [4]: inhibition; Radioprotection / cytoprotection ([2]; 50 Gy): did not provide any radioprotection; Cytotoxicity ([2]; U937 cells, 0-100 μM, 50 Gy): rather cytotoxic

Q: For `NCCCNCCSP(=O)(O)O` [amifostine, Amifostine], which Radiation-induced cell death [2, 7] is on record?
A: The Radiation-induced cell death was “inhibition”.

Q: And the “Radiation-induced DNA fragmentation” value (U937 cells [5])?
A: Its value is “inhibited”.

Q: And the “Visual comets (DNA degradation)” value (U937 cells [6])?
A: Its value is “absent”.

Q: Which “Inhibition of DNase I activity” value [3] does the source give for `O=C(O)[C@H](O)[C@@H](O)[C@H](O)[C@H](O)CO` [gluconic acid] here?
A: Its value is “no effect”.

Q: And the “Inhibition of serum DNase activity” value [4]?
A: The value was “no effect”.

Q: For `NCC(=O)O` [glycine], which “Inhibition of DNase I activity” value [3] is on record?
A: Its value is “no effect”.

Q: What about the “Inhibition of serum DNase activity” value [4] of the same compound?
A: The value was “no effect”.

Q: With Zn^2+-Cysteamine [Zn-Cysteamine] as the compound, how does the “TEAC value, Chelate” value [1] read?
A: Its value is 0.87.

Q: What about the “Inhibition of cell death compared with that induced by cysteamine or amifostine” value ([2]; added before 50 Gy, PI assay) of the same compound?
A: The value was “better”.

Q: What about the Radiation-induced cell death [2, 7] of the same compound?
A: Its Radiation-induced cell death is “inhibited”.

Q: What does the source list for Zn^2+-Cysteine [Zn-Cysteine]?
A: TEAC value, Chelate [1]: 0.65; Radiation-induced cell death [2]: inhibited; Radioprotection / cytoprotection ([2]; 50 Gy): significant cytoprotection

Q: Which “TEAC value, Chelate” value [1] does the source give for “Zn—N-(2-mercaptopropionyl)glycine [Zn-MPG]” here?
A: The value was 0.97.

Q: And the Radiation-induced cell death [2, 7]?
A: The Radiation-induced cell death was “inhibited”.

Q: Which “TEAC value, Chelate” value [1] does the source give for zinc-captopril [Zn-Captopril] here?
A: The value was 0.90.

Q: And the “Protection against radiation injury” value (human U937 cells)?
A: Its value is “protected”.

Q: With zinc-penicillamine [Zn-Penicillamine] as the compound, how does the “Antioxidant activity in TEAC assay” value [1] read?
A: Its value is “strongest antioxidants”.

Q: What about the “TEAC value, Chelate” value [1] of the same compound?
A: Its value is 2.05.

Q: And the “Protection against radiation injury” value (human U937 cells)?
A: Its value is “protected”.
